Consider 20 compounds from PubChem BioAssay AID268 (DTP/NCI, 2004).

The assay has as its system CD2F1 mice, P1798 lymphosarcoma sc, tumor weight T/C. Briefly: NCI In Vivo Anticancer Drug Screen. Data for tumor model P1798 Lymphosarcoma (subcutaneous) in CD2F1 (CDF1) mice. Particulars: endpoint: mean tumor weight, higher = larger tumour. The method, then:
The antitumor activity of compounds was measured in mice bearing transplantable tumors. Survival or tumor size were measured and the results are expressed as the measurement made in the treated group (T) divided by the measurement made in the vehicle treated control group (C). The tumor model used in this assay is P1798 Lymphosarcoma (subcutaneous) in CD2F1 (CDF1) mice

Where [1] appears, read: dose: 50.0 mg/kg/injection, schedule: Q01DX010 (ip), vehicle: saline.
Where [2] appears, read: dose: 100.0 mg/kg/injection, schedule: Q01DX010 (ip), vehicle: saline.
[3] abbreviates: dose: 200.0 mg/kg/injection, schedule: Q01DX010 (ip), vehicle: saline.
[4] abbreviates: dose: 400.0 mg/kg/injection, schedule: Q01DX010 (ip), vehicle: saline.
Setting [5] is: dose: 0.25 mg/kg/injection, schedule: Q01DX010 (ip), vehicle: saline.
The mark [6] stands for this setting: dose: 0.5 mg/kg/injection, schedule: Q01DX010 (ip), vehicle: saline.
[7] abbreviates: dose: 12.5 mg/kg/injection, schedule: Q01DX010 (sc), vehicle: steriod suspending solution.
The mark [8] stands for this setting: dose: 25.0 mg/kg/injection, schedule: Q01DX010 (sc), vehicle: steriod suspending solution.
The mark [9] stands for this setting: dose: 50.0 mg/kg/injection, schedule: Q01DX010 (sc), vehicle: steriod suspending solution.
Where [10] appears, read: dose: 25.0 mg/kg/injection, schedule: Q01DX010 (ip), vehicle: saline.
Where [11] appears, read: dose: 31.3 mg/kg/injection, schedule: Q01DX010 (ip), vehicle: saline.
[12] abbreviates: dose: 125.0 mg/kg/injection, schedule: Q01DX010 (ip), vehicle: saline.
Setting [13] is: dose: 250.0 mg/kg/injection, schedule: Q01DX010 (ip), vehicle: saline.
Setting [14] is: dose: 15.0 mg/kg/injection, schedule: Q01DX010 (ip), vehicle: saline.
Where [15] appears, read: dose: 30.0 mg/kg/injection, schedule: Q01DX010 (ip), vehicle: saline.

Values joined by “and” are separate entries in the source; they are usually repeats but may differ in a detail not shown here. Equal values may be shown once.

As to `O=C(NCCCCC(NC(=O)c1ccccc1)C(=O)NCCCCCCNCCCCCCNC(=O)C(CCCCNC(=O)c1ccccc1)NC(=O)c1ccccc1)c1ccccc1` (stereo not drawn), the T/C by setting is: under setting [1], 98 % of control; under setting [2], 85 % of control; under setting [3], 116 % of control; under setting [4], 80 % of control.
On to `CC(=O)NC1=C(N2CC2)C(=O)C(NC(C)=O)=C(N2CC2)C1=O`, for which the T/C under setting [5] was 86 % of control and the T/C under setting [6] was 45 % of control.
Take `CC(=O)O[C@H]1CC[C@H]2[C@@H]3CC[C@H]4CCCC[C@]4(C)[C@H]3CC[C@]12C`: the T/C by setting is: under setting [7], 104 % of control and 121 % of control; under setting [8], 103 % of control and 85 % of control; under setting [9], 103 % of control.
On to `CN[C@H]1CCc2cc(OC)c(OC)c(OC)c2-c2ccc(OC)c(=O)cc21`, for which the T/C reads like this: (dose: 0.63 mg/kg/injection, schedule: Q01DX010 (ip), vehicle: other) 108 % of control; (dose: 0.63 mg/kg/injection, schedule: Q01DX010 (ip), vehicle: saline) 59 % of control; (dose: 1.25 mg/kg/injection, schedule: Q01DX010 (ip), vehicle: other) 116 % of control; (dose: 1.25 mg/kg/injection, schedule: Q01DX010 (ip), vehicle: saline) 82 % of control; (dose: 2.5 mg/kg/injection, schedule: Q01DX010 (ip), vehicle: other) 112 % of control; (dose: 2.5 mg/kg/injection, schedule: Q01DX010 (ip), vehicle: saline) 57 % of control. Moreover, the T/C (dose: 5.0 mg/kg/injection, schedule: Q01DX010 (ip), vehicle: other) was 96 % of control and the T/C (dose: 5.0 mg/kg/injection, schedule: Q01DX010 (ip), vehicle: saline) was 32 % of control.
Turning to `CC(=O)OC(C)(C)/C=C/C(=O)[C@](C)(O)[C@H]1[C@H](O)C[C@@]2(C)[C@@H]3CC=C4[C@@H](CC[C@H](O)C4(C)C)[C@]3(CO)C(=O)C[C@]12C`, the T/C (dose: 0.16 mg/kg/injection, schedule: Q01DX010 (ip), vehicle: saline) was 109 % of control; the T/C under setting [5] was 89 % of control; the T/C (dose: 0.38 mg/kg/injection, schedule: Q01DX010 (ip), vehicle: saline) was 102 % of control; the T/C (dose: 0.57 mg/kg/injection, schedule: Q01DX010 (ip), vehicle: saline) is 109 % of control.
`CSCS(=O)C[C@H](CO)NC(=O)/C=C/c1c(C)[nH]c(=O)[nH]c1=O` (stereo partly drawn): the T/C runs as follows: (dose: 0.13 mg/kg/injection, schedule: Q01DX010 (ip), vehicle: saline) 94 % of control; under setting [5], 99 % of control; under setting [6], 15 % of control.
On to `Nc1c(N=Nc2ccc([N+](=O)[O-])cc2)c(S(=O)(=O)O)cc2cc(S(=O)(=O)O)c(N=Nc3ccc(Sc4ccc(N=Nc5ccc(O)cc5)cc4)cc3)c(O)c12` (tested in a mixture with another compound), for which the T/C is 119 % of control under setting [1], 76 % of control under setting [2], 31 % of control under setting [3] and 20 % of control under setting [4].
On to `N=C(N)c1ccc(Nc2ccc(C(=N)N)cc2)cc1`, for which the T/C was 85 % of control (dose: 1.5 mg/kg/injection, schedule: Q01DX010 (ip), vehicle: saline); 82 % of control (dose: 3.0 mg/kg/injection, schedule: Q01DX010 (ip), vehicle: saline); 119 % of control (dose: 6.0 mg/kg/injection, schedule: Q01DX010 (ip), vehicle: saline); 77 % of control (dose: 12.0 mg/kg/injection, schedule: Q01DX010 (ip), vehicle: saline).
As to `CC(=O)NCCSC(=O)C(=O)SCCNC(C)=O`, the T/C is, setting by setting: under setting [10], 111 % of control; under setting [1], 104 % of control; under setting [2], 110 % of control.
As for `COc1ccc2c(c1OC)C(=O)O[C@@H]2[C@H]1c2c(cc3c(c2OC)OCO3)CCN1C`, the T/C was 107 % of control (dose: 15.6 mg/kg/injection, schedule: Q01DX010 (ip), vehicle: saline); 78 % of control under setting [11]; 97 % of control under setting [12]; 78 % of control under setting [13].
Turning to `CN(Cc1cnc2nc(N)nc(N)c2n1)c1c(Cl)cc(C(=O)NC(CCC(=O)O)C(=O)O)cc1Cl` (stereo not drawn), the T/C runs as follows: (dose: 10.0 mg/kg/injection, schedule: Q01DX010 (ip), vehicle: saline) 33 % of control; (dose: 20.0 mg/kg/injection, schedule: Q01DX010 (ip), vehicle: saline) 12 % of control.
Regarding `CC(=O)[C@@]1(O)CC[C@H]2[C@@H]3C[C@H](C)C4=CC(=O)C=C[C@]4(C)[C@@]3(F)[C@@H](O)C[C@@]21C`, the T/C (dose: 12.5 mg/kg/injection, schedule: Q01DX005 (sc), vehicle: steriod suspending solution) is 3 % of control; the T/C under setting [7] is 18 % of control and 41 % of control; the T/C (dose: 25.0 mg/kg/injection, schedule: Q01DX005 (sc), vehicle: steriod suspending solution) was 3 % of control; the T/C (dose: 25.0 mg/kg/injection, schedule: Q02DX010 (sc), vehicle: steriod suspending solution) was 98 % of control; the T/C (dose: 50.0 mg/kg/injection, schedule: Q01DX005 (sc), vehicle: steriod suspending solution) is 2 % of control; the T/C (dose: 50.0 mg/kg/injection, schedule: Q02DX010 (sc), vehicle: steriod suspending solution) is 93 % of control. Moreover, the T/C (dose: 100.0 mg/kg/injection, schedule: Q01DX005 (sc), vehicle: steriod suspending solution) is 1 % of control and the T/C (dose: 100.0 mg/kg/injection, schedule: Q02DX010 (sc), vehicle: steriod suspending solution) was 98 % of control.
Regarding `Nc1nncs1`, the T/C is, setting by setting: (dose: 1.88 mg/kg/injection, schedule: Q01DX010 (ip), vehicle: saline) 93 % of control; (dose: 3.75 mg/kg/injection, schedule: Q01DX010 (ip), vehicle: saline) 68 % of control; (dose: 7.5 mg/kg/injection, schedule: Q01DX010 (ip), vehicle: saline) 69 % of control; under setting [14], 52 % of control and 59 % of control; under setting [15], 7 % of control.
Turning to `Cc1ccc2[nH]c3nc4cc(C)c(C)cc4nc3c2c1`, the T/C is, setting by setting: under setting [1], 93 % of control; under setting [2], 76 % of control.
Turning to `Nc1nc(N)c2nc(CNc3ccc(C(=O)NC(CCC(=O)O)C(=O)O)cc3)cnc2n1` (stereo not drawn), the T/C (dose: 50.0 micrograms/kg/injection, schedule: Q01DX010 (ip), vehicle: other) is 110 % of control; the T/C (dose: 100.0 micrograms/kg/injection, schedule: Q01DX010 (ip), vehicle: other) was 100 % of control; the T/C (dose: 200.0 micrograms/kg/injection, schedule: Q01DX010 (ip), vehicle: other) is 79 % of control.
On to `O=c1cnn(C2OC(CO)C(O)C2O)c(=O)[nH]1` (stereo not drawn), for which the T/C runs as follows: under setting [1], 80 % of control; under setting [2], 73 % of control; under setting [3], 49 % of control; under setting [4], 17 % of control.
Regarding `CN(C)[C@@H]1C(=O)C(C(N)=O)=C(O)[C@@]2(O)C(=O)C3=C(O)c4c(O)cccc4C[C@H]3C[C@@H]12`, the T/C is 124 % of control under setting [14] and 106 % of control under setting [15].
For `CC1CCC2C(C)C3C(CC4C5CC=C6CC(OC7OC(CO)C(O)C(OC8OC(CO)C(O)C(O)C8O)C7OC7OC(C)C(O)C(O)C7O)CCC6(C)C5CCC43C)N2C1` (stereo not drawn), the T/C was 65 % of control under setting [8]; 44 % of control under setting [9]; 16 % of control (dose: 100.0 mg/kg/injection, schedule: Q01DX010 (sc), vehicle: steriod suspending solution); 9 % of control and 26 % of control (dose: 200.0 mg/kg/injection, schedule: Q01DX010 (sc), vehicle: steriod suspending solution); 30 % of control (dose: 400.0 mg/kg/injection, schedule: Q01DX010 (sc), vehicle: steriod suspending solution).
Consider `Nc1c(Br)cc2c(c1Br)Cc1cc([N+](=O)[O-])ccc1-2`, for which the T/C under setting [11] was 72 % of control; the T/C (dose: 62.5 mg/kg/injection, schedule: Q01DX010 (ip), vehicle: saline) is 78 % of control; the T/C under setting [12] is 61 % of control; the T/C under setting [13] is 62 % of control.
Take `NCCCC(N)C(=O)NCCCCCCNCCCCCCNC(=O)C(N)CCCN` (stereo not drawn): the T/C runs as follows: (dose: 12.5 mg/kg/injection, schedule: Q01DX010 (ip), vehicle: saline) 86 % of control; under setting [10], 62 % of control; under setting [1], 77 % of control; under setting [2], 34 % of control.

What is called T/C is the ratio of treated to control.
